In patent US20230242530A1, “8-(AZETIDIN-1-YL)-[1,2,4]TRIAZOLO[1,5-A]PYRIDINYL COMPOUNDS, COMPOSITIONS AND METHODS OF USE THEREOF” (Genentech, Inc., priority 2016, published 2023):
pEC50, pKi: −log10 of the molar value.

How the values were obtained:
[1] = biological target: T1, isolated recombinant JAK1 kinase domain (Homo sapiens, UniProt P23458); test: JAK enzyme assay, JAK1 kinase domain (Caliper LabChip); type: biochemical; conditions: 1.5 nM JAK1, ATP 25 μM, Morrison tight binding model
T1 construct: isolated recombinant JAK1 and JAK2 kinase domain
In short: (§1)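 Recombinant kinase domains phosphorylated a 5-carboxyfluorescein-labelled JAK3-derived peptide for 30 min at 22 °C, and the reaction was stopped with EDTA (50 mM final). Product fraction was measured by Caliper LabChip mobility shift. Ki came from Morrison tight-binding fits corrected for ATP competition (Ki=Ki,app/(1+[ATP]/Km,app)).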

[2] = test system: JAK1-dependent STAT6 phosphorylation downstream of IL-13 stimulation in BEAS-2B cells; test: JAK1 pathway assay in cell lines: IL-13 p-STAT6 BEAS-2B; type: cell-based; conditions: BEAS-2B human bronchial epithelial cells, 1 hr compound, IL-13 15 min, MSD readout
In short: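 BEAS-2B cells plated a day ahead in complete growth medium; compounds added 1 hr at 37 °C (0.2% DMSO final), then IL-13 at lot-specific EC90 for 15 min at 37 °C. Phospho-STAT6 in lysates measured by MSD; EC50 is 50% inhibition relative to DMSO control.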

[3] = biological target: T2, isolated recombinant JAK2 kinase domain (Homo sapiens, UniProt O60674); test: JAK enzyme assay, JAK2 kinase domain (Caliper LabChip); type: biochemical; conditions: 0.2 nM JAK2, ATP 25 μM, Morrison tight binding model
T2 construct: isolated recombinant JAK1 and JAK2 kinase domain
In short: as §1

T1 sequence (P23458 875-1153 limits assumed): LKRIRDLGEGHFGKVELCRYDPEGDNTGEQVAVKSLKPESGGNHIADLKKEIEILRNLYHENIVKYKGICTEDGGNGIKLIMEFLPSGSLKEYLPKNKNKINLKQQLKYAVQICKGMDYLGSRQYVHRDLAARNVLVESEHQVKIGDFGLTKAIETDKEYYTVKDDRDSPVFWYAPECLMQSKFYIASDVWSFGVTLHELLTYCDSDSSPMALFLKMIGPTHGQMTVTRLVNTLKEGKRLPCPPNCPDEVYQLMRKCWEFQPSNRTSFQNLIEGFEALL
T2 sequence (O60674 849-1124 limits assumed): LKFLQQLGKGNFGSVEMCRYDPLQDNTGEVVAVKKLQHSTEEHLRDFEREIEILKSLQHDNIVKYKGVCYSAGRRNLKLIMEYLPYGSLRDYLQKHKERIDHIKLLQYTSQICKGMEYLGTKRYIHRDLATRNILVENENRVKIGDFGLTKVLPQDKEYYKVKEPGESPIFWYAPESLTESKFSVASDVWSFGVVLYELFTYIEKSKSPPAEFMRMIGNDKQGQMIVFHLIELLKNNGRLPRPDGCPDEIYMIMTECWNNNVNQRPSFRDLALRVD

| pKi [1] | pKi [3] | Structure (SMILES) | pEC50 [2] |
| --- | --- | --- | --- |
| 9.30 | 8.89 | CCc1cnn(C2(CC#N)CN(c3cccn4nc(Nc5ccc(C(=O)N6CC(C(=O)N7CCN(C)CC7)C6)cc5)nc34)C2)c1 [Example 65, 2-[3-(4-ethylpyrazol-1-yl)-1-[2-[4-[3-(4-methylpiperazine-1-carbonyl)azetidine-1-carbonyl]anilino]-[1,2,4]triazolo[1,5-a]pyridin-8-yl]azetidin-3-yl]acetonitrile] | 7.07 |
| 9.40 | 9.22 | CN1CCN(C(=O)c2ccc(Nc3nc4c(N5CC(CC#N)(n6cc(C7CCOCC7)cn6)C5)cccn4n3)cc2)CC1 [Example 113, 2-[1-[2-[4-(4-methylpiperazine-1-carbonyl)anilino]-[1,2,4]triazolo[1,5-a]pyridin-8-yl]-3-(4-tetrahydropyran-4-ylpyrazol-1-yl)azetidin-3-yl]acetonitrile] | 7.37 |
| 9.70 | 9.70 | Cc1ccccc1-c1cnn(C2(CC#N)CN(c3cccn4nc(Nc5cnn(CC(=O)N6CCN(C)CC6)c5)nc34)C2)c1 [Example 63] | 7.89 |
| 9.52 | 9.52 | N#CCC1(n2cc(C(F)(F)F)cn2)CN(c2cccn3nc(Nc4cnn(CCO)c4)nc23)C1 [Example 134, 2-[1-[2-[[1-(2-hydroxyethyl)pyrazol-4-yl]amino]-[1,2,4]triazolo[1,5-a]pyridin-8-yl]-3-[4-(trifluoromethyl)pyrazol-1-yl]azetidin-3-yl]acetonitrile] | 7.89 |
| 9.70 | 9.40 | N#CCC1(n2cc(C(F)(F)F)cn2)CN(c2cccn3nc(Nc4cn[nH]c4)nc23)C1 [Example 131, 2-[1-[2-(1H-pyrazol-4-ylamino)-[1,2,4]triazolo[1,5-a]pyridin-8-yl]-3-[4-(trifluoromethyl)pyrazol-1-yl]azetidin-3-yl]acetonitrile] | 7.37 |
| 9.70 | 9.52 | CC(C)c1cnn(C2(CC#N)CN(c3cccn4nc(Nc5cnn(C)c5)nc34)C2)c1 [Example 138, 2-[3-(4-isopropylpyrazol-1-yl)-1-[2-[(l-methylpyrazol-4-yl)amino]-[1,2,4]triazolo[1,5-a]pyridin-8-yl]azetidin-3-yl]acetonitrile] | 7.80 |
| 10.00 | 9.70 | N#CCC1(n2cc(OC(F)F)cn2)CN(c2cccn3nc(Nc4cnn(CC(F)F)c4)nc23)C1 [Example 150, 2-[1-[2-[[1-(2,2-difluoroethyl)pyrazol-4-yl]amino]-[1,2,4]triazolo[1,5-a]pyridin-8-yl]-3-[4-(difluoromethoxy)pyrazol-1-yl]azetidin-3-yl]acetonitrile] | 8.22 |
| 10.00 | 8.85 | N#CCC1(n2cc(SC(F)F)cn2)CN(c2cccn3nc(Nc4cn[nH]c4)nc23)C1 [Example 151, 2-[3-[4-(difluoromethylsulfanyl)pyrazol-1-yl]-1-[2-(1H-pyrazol-4-ylamino)-[1,2,4]triazolo[1,5-a]pyridin-8-yl]azetidin-3-yl]acetonitrile] | 7.38 |
| 8.92 | 8.29 | CN1CCN(C(=O)Cn2cc(Nc3nc4c(N5CC(CC#N)(Cc6cccc(Cl)c6)C5)cccn4n3)cn2)CC1 [Example 102, 2-[3-[(3-chlorophenyl)methyl]-1-[2-[[1-[2-(4-methylpiperazin-1-yl)-2-oxo-ethyl]pyrazol-4-yl]amino]-[1,2,4]triazolo[1,5-a]pyridin-8-yl]azetidin-3-yl]acetonitrile] | 6.54 |
| 9.52 | 8.89 | CCc1cnn(C2(CC#N)CN(c3cccn4nc(Nc5ccc6c(c5)CCN(C5CCOCC5)C6)nc34)C2)c1 [Example 57, 2-[3-(4-ethylpyrazol-1-yl)-1-[2-[(2-tetrahydropyran-4-yl-3,4-dihydro-1H-isoquinolin-6-yl)amino]-[1,2,4]triazolo[1,5-a]pyridin-8-yl]azetidin-3-yl]acetonitrile] | 7.92 |
| 9.40 | 9.70 | CSc1cccc(C2(CC#N)CN(c3cccn4nc(Nc5cnn(CC(=O)N6CCC(N7CCOCC7)CC6)c5)nc34)C2)c1 [Example 90, 2-[3-(3-methylsulfanylphenyl)-1-[2-[[1-[2-(4-morpholino-1-piperidyl)-2-oxo-ethyl]pyrazol-4-yl]amino]-[1,2,4]triazolo[1,5-a]pyridin-8-yl]azetidin-3-yl]acetonitrile] | 7.66 |
| 9.10 | 9.05 | CN1CCN(C(=O)c2cccc(Nc3nc4c(N5CC(CC#N)(n6cc(C(F)(F)F)cn6)C5)cccn4n3)c2)CC1 [Example 110, formic acid;2-[1-[2-[3-(4-methylpiperazine-1-carbonyl)anilino]-[1,2,4]triazolo[1,5-a]pyridin-8-yl]-3-[4-(trifluoromethyl)pyrazol-1-yl]azetidin-3-yl]acetonitrile] | 7.00 |
| 9.40 | 8.89 | CC(=O)N1CCN(CC2CCN(C(=O)Cn3cc(Nc4nc5c(N6CC(CC#N)(c7cccc(Cl)c7)C6)cccn5n4)cn3)CC2)CC1 [Example 95, 2-[1-[2-[[1-[2-[4-[(4-acetylpiperazin-1-yl)methyl]-1-piperidyl]-2-oxo-ethyl]pyrazol-4-yl]amino]-[1,2,4]triazolo[1,5-a]pyridin-8-yl]-3-(3-chlorophenyl)azetidin-3-yl]acetonitrile] | 7.39 |
| 9.52 | 9.52 | CCc1cnn(C2(CC#N)CN(c3cccn4nc(Nc5cnn(CCO)c5)nc34)C2)c1 [Example 133, 2-[3-(4-ethylpyrazol-1-yl)-1-[2-[[1-(2-hydroxyethyl)pyrazol-4-yl]amino]-[1,2,4]triazolo[1,5-a]pyridin-8-yl]azetidin-3-yl]acetonitrile] | 7.92 |

Further lines, the molecule ahead of its results:

| Structure (SMILES) | pKi [1] | pKi [3] | pEC50 [2] |
| --- | --- | --- | --- |
| CCc1cnn(C2(CC#N)CN(c3cccn4nc(Nc5cnn(CC(=O)N6CCN(CCOC)CC6)c5)nc34)C2)c1 [Example 46, 2-[3-(4-ethylpyrazol-1-yl)-1-[2-[[1-[2-[4-(2-methoxyethyl)piperazin-1-yl]-2-oxo-ethyl]pyrazol-4-yl]amino]-[1,2,4]triazolo[1,5-a]pyridin-8-yl]azetidin-3-yl]acetonitrile] | 9.70 | 9.70 | 8.15 |
| CCc1cnn(C2(CC#N)CN(c3cccn4nc(Nc5cnn(CC(=O)N6CCC(N(C)C7COC7)CC6)c5)nc34)C2)c1 [Example 34, 2-[3-(4-ethylpyrazol-1-yl)-1-[2-[[1-[2-[4-[methyl(oxetan-3-yl)amino]-1-piperidyl]-2-oxo-ethyl]pyrazol-4-yl]amino]-[1,2,4]triazolo[1,5-a]pyridin-8-yl]azetidin-3-yl]acetonitrile] | 9.40 | 9.52 | 7.82 |
| CCc1cnn(C2(CC#N)CN(c3cccn4nc(Nc5cnn(CC(=O)N6CCN(C)CC6)c5)nc34)C2)c1 [Example 1, 2-[3-(4-ethyl-1H-pyrazol-1-yl)-1-[2-([1-[2-(4-methylpiperazin-1-yl)-2-oxoethyl]-1H-pyrazol-4-yl]amino)-[1,2,4]triazolo[1,5-a]pyridin-8-yl]azetidin-3-yl]acetonitrile] | 9.10 | 8.70 | 7.54 |
| CN1CCN(C(=O)Cn2cc(Nc3nc4c(N5CC(CC#N)(N6CCOCC6)C5)cccn4n3)cn2)CC1 [Example 8] | 9.52 | 8.82 | 7.92 |
| CN1CCN(C(=O)Cn2cc(Nc3nc4c(N5CC(CC#N)(c6ccc(C(F)(F)F)cc6)C5)cccn4n3)cn2)CC1 [Example 17] | 9.52 | 8.92 | 7.74 |
| CCc1cnn(C2(C(C)C#N)CN(c3cccn4nc(Nc5cnn(CC(=O)N6CCN(C)CC6)c5)nc34)C2)c1 (stereo not drawn) [Example 54, 2-[3-(4-ethylpyrazol-1-yl)-1-[2-[[1-[2-(4-methylpiperazin-1-yl)-2-oxo-ethyl]pyrazol-4-yl]amino]-[1,2,4]triazolo[1,5-a]pyridin-8-yl]azetidin-3-yl]propanenitrile] | 9.00 | 8.55 | 6.64 |
| CN1CCN(C(=O)Cn2cc(Nc3nc4c(N5CC(CC#N)(n6cc(C(F)(F)F)cn6)C5)cccn4n3)cn2)CC1 [Example 15] | 8.66 | 8.03 | < 6.00 |
| CN1CCN(C(=O)Cn2cc(Nc3nc4c(N5CC(CC#N)(n6cc(CCF)cn6)C5)cccn4n3)cn2)CC1 [Example 40, 2-[3-[4-(2-fluoroethyl)pyrazol-1-yl]-1-[2-[[1-[2-(4-methylpiperazin-1-yl)-2-oxo-ethyl]pyrazol-4-yl]amino]-[1,2,4]triazolo[1,5-a]pyridin-8-yl]azetidin-3-yl]acetonitrile] | 9.52 | 9.70 | 7.74 |
| CN1CCN(C(=O)Cn2cc(Nc3nc4c(N5CC(CC#N)(c6ccc(Cl)c(F)c6)C5)cccn4n3)cn2)CC1 [Example 23, 2-[3-(4-chloro-3-fluoro-phenyl)-1-[2-[[1-[2-(4-methylpiperazin-1-yl)-2-oxo-ethyl]pyrazol-4-yl]amino]-[1,2,4]triazolo[1,5-a]pyridin-8-yl]azetidin-3-yl]acetonitrile] | 9.15 | 8.21 | 7.40 |
| CCc1cnn(C2(CC#N)CN(c3cccn4nc(Nc5ccc(CC(=O)N6CCN(C)CC6)cc5)nc34)C2)c1 [Example 73, 2-[3-(4-ethylpyrazol-1-yl)-1-[2-[4-[2-(4-methylpiperazin-1-yl)-2-oxo-ethyl]anilino]-[1,2,4]triazolo[1,5-a]pyridin-8-yl]azetidin-3-yl]acetonitrile] | 9.15 | 9.52 | 7.74 |
